pKi: −log10 of the molar value.
Biological target: WDR5 (Homo sapiens, UniProt P61964)
Assay: Competition-based fluorescence polarization anisotropy assay
Conditions: binding to WDR5; displacement of FITC-labeled small molecule probe (analogous to Example J2 or HCH-25) or peptide probe FITC-AHx-SEEEIDVVSV; pH 6.0; Ki converted from IC50
Description: Compounds of the present invention were assessed for their ability to bind to WDr5 using a competition-based fluorescence polarization anisotropy assay, similar to the method previously described. […] Fluorescence polarization measurements were performed in 384-well plates (Greiner Bio One) using a Cytation 3 plate reader (BioTek). Fluorescein isothiocyanate (FITC)-labeled peptide probe ([…]) was purchased from GenScript USA Inc and used without further purification. […] The assay buffer contained 200 mM phosphate, 300 mM NaCl, and 0.5 mM TCEP and 0.1% Chaps at pH 6.0. […] This was converted into a binding dissociation constant (Ki value) according to the formula: […] Data shown in the table below represents a K; determined from this method for each Example, using either a fluorescently labeled small molecule probe analogous to Example J2 or Example HCH-25, or the peptide probe described above, in the assay.

Structure (SMILES)	pKi
O=C(NC1CC(F)(F)C1)c1cc(Cl)cc(NS(=O)(=O)c2cc(Br)ccc2O)c1O [Example J38, 3-((5-Bromo-2-hydroxyphenyl)sulfonamido)-5-chloro-N-(3,3-difluorocyclobutyl)-2-hydroxybenzamide]	6.40
O=C(NCC(F)F)c1cc(Cl)cc(NS(=O)(=O)c2cc(Br)ccc2O)c1O [Example J39, 3-((5-Bromo-2-hydroxyphenyl)sulfonamido)-5-chloro-N-(2,2-difluoroethyl)-2-hydroxybenzamide]	6.10
CNC(=O)c1cc(Cl)cc(NS(=O)(=O)c2cc(Br)cc(Cl)c2O)c1O [Example J40, 3-((5-Bromo-3-chloro-2-hydroxyphenyl)sulfonamido)-5-chloro-2-hydroxy-N-methylbenzamide]	6.62
O=C(NCCO)c1cc(Cl)cc(NS(=O)(=O)c2cc(Br)cc(Cl)c2O)c1O [Example J41, 3-((5-Bromo-3-chloro-2-hydroxyphenyl)sulfonamido)-5-chloro-2-hydroxy-N-(2-hydroxyethyl)benzamide]	5.61
COCCNC(=O)c1cc(Cl)cc(NS(=O)(=O)c2cc(Br)cc(Cl)c2O)c1O [Example J42, 3-((5-Bromo-3-chloro-2-hydroxyphenyl)sulfonamido)-5-chloro-2-hydroxy-N-(2-methoxyethyl)benzamide]	6.52
COc1ccc(Br)cc1S(=O)(=O)Nc1cc(Cl)cc(C(N)=O)c1O [Example J43, 3-((5-Bromo-2-methoxyphenyl)sulfonamido)-5-chloro-2-hydroxybenzamide]	5.94
CNC(=O)c1cc(Cl)cc(NS(=O)(=O)c2cc(Br)ccc2OC)c1O [Example J44, 3-((5-Bromo-2-methoxyphenyl)sulfonamido)-5-chloro-2-hydroxy-N-methylbenzamide]	5.90
COCCNC(=O)c1cc(Cl)cc(NS(=O)(=O)c2cc(Br)ccc2OC)c1O [Example J45, 3-((5-Bromo-2-methoxyphenyl)sulfonamido)-5-chloro-2-hydroxy-N-(2-methoxyethyl)benzamide]	6.00
COc1ccc(Br)cc1S(=O)(=O)Nc1cc(Cl)cc(C(=O)N2CCOCC2)c1O [Example J48, 5-Bromo-N-(5-chloro-2-hydroxy-3-(morpholine-4-carbonyl)phenyl)-2-methoxybenzenesulfonamide]	5.21
COc1ccc(Br)cc1S(=O)(=O)Nc1cc(Cl)cc(C(=O)N(C)C)c1O [Example J50, 3-((5-Bromo-2-methoxyphenyl)sulfonamido)-5-chloro-2-hydroxy-N,N-dimethylbenzamide]	4.13
COCCCNC(=O)c1cc(Cl)cc(NS(=O)(=O)c2cc(Br)ccc2OC)c1O [Example J51, 3-((5-Bromo-2-methoxyphenyl)sulfonamido)-5-chloro-2-hydroxy-N-(3-methoxypropyl)benzamide]	5.61
COc1ccc(Br)cc1S(=O)(=O)Nc1cc(Cl)cc(C(=O)NC2CCOCC2)c1O [Example J52, 3-((5-Bromo-2-methoxyphenyl)sulfonamido)-5-chloro-2-hydroxy-N-(tetrahydro-2H-pyran-4-yl)benzamide]	5.40
COc1ccc(Br)cc1S(=O)(=O)Nc1cc(Cl)cc(C(=O)NCCCO)c1O [Example J53, 3-((5-Bromo-2-methoxyphenyl)sulfonamido)-5-chloro-2-hydroxy-N-(3-hydroxypropyl)benzamide]	5.68
COc1ccc(Br)cc1S(=O)(=O)Nc1cc(Cl)cc(C(=O)N2CCC[C@H]2CO)c1O [Example J54, (S)-5-Bromo-N-(5-chloro-2-hydroxy-3-(2-(hydroxymethyl)pyrrolidine-1-carbonyl)phenyl)-2-methoxybenzenesulfonamide]	5.16
COc1ccc(Br)cc1S(=O)(=O)Nc1cc(Cl)cc(C(=O)N2CCC[C@@H]2CO)c1O [Example J55, (R)-5-Bromo-N-(5-chloro-2-hydroxy-3-(2-(hydroxymethyl)pyrrolidine-1-carbonyl)phenyl)-2-methoxybenzenesulfonamide]	5.09
COC[C@@H]1CCCN1C(=O)c1cc(Cl)cc(NS(=O)(=O)c2cc(Br)ccc2OC)c1O [Example J56, (S)-5-Bromo-N-(5-chloro-2-hydroxy-3-(2-(methoxymethyl)pyrrolidine-1-carbonyl)phenyl)-2-methoxybenzenesulfonamide]	5.33
COC[C@H]1CCCN1C(=O)c1cc(Cl)cc(NS(=O)(=O)c2cc(Br)ccc2OC)c1O [Example J57, (R)-5-Bromo-N-(5-chloro-2-hydroxy-3-(2-(methoxymethyl)pyrrolidine-1-carbonyl)phenyl)-2-methoxybenzenesulfonamide]	5.07
COCCN(C)C(=O)c1cc(Cl)cc(NS(=O)(=O)c2cc(Br)ccc2OC)c1O [Example J58, 3-((5-Bromo-2-methoxyphenyl)sulfonamido)-5-chloro-2-hydroxy-N-(2-methoxyethyl)-N-methylbenzamide]	5.11
COc1ccc(Br)cc1S(=O)(=O)Nc1cc(Cl)cc(C(=O)NCCO)c1O [Example J59, 3-((5-Bromo-2-methoxyphenyl)sulfonamido)-5-chloro-2-hydroxy-N-(2-hydroxyethyl)benzamide]	5.93
COc1ccc(Br)cc1S(=O)(=O)Nc1cc(Cl)cc(C(=O)NC2CCOC2)c1O (stereo not shown) [Example J60, 3-((5-Bromo-2-methoxyphenyl)sulfonamido)-5-chloro-2-hydroxy-N-(tetrahydrofuran-3-yl)benzamide]	6.03
COc1ccc(Br)cc1S(=O)(=O)Nc1cc(Cl)cc(C(=O)NCCN)c1O [Example J61, N-(2-Aminoethyl)-3-((5-bromo-2-methoxyphenyl)sulfonamido)-5-chloro-2-hydroxybenzamide]	5.57
COc1ccc(Br)cc1S(=O)(=O)Nc1cc(Cl)cc(C(=O)N2CC(OC)C2)c1O [Example J62, 5-Bromo-N-(5-chloro-2-hydroxy-3-(3-methoxyazetidine-1-carbonyl)phenyl)-2-methoxybenzenesulfonamide]	5.03
COc1ccc(Br)cc1S(=O)(=O)Nc1cc(Cl)cc(C(=O)N2CC(O)C2)c1O [Example J63, 5-Bromo-N-(5-chloro-2-hydroxy-3-(3-hydroxyazetidine-1-carbonyl)phenyl)-2-methoxybenzenesulfonamide]	5.26
COc1ccc(Br)cc1S(=O)(=O)Nc1cc(Cl)cc(C(=O)N2CC(S(C)(=O)=O)C2)c1O [Example J64, 5-Bromo-N-(5-chloro-2-hydroxy-3-(3-(methylsulfonyl)azetidine-1-carbonyl)phenyl)-2-methoxybenzenesulfonamide]	5.38
COc1ccc(Br)cc1S(=O)(=O)Nc1cc(Cl)cc(C(=O)NCC2CCCO2)c1O (stereo not shown) [Example J65, 3-((5-Bromo-2-methoxyphenyl)sulfonamido)-5-chloro-2-hydroxy-N-((tetrahydrofuran-2-yl)methyl)benzamide]	5.99
O=C(O)c1cc(Cl)cc(NS(=O)(=O)c2cc(Br)ccc2O)c1 [Example J66, 3-((5-Bromo-2-hydroxyphenyl)sulfonamido)-5-chlorobenzoic acid]	5.45
O=C(Nc1nc[nH]n1)c1cc(Cl)cc(NS(=O)(=O)c2cc(Br)ccc2O)c1 [Example J67, 3-((5-Bromo-2-hydroxyphenyl)sulfonamido)-5-chloro-N-(1H-1,2,4-triazol-3-yl)benzamide]	6.44
O=C(O)c1cc(C2CC2)cc(NS(=O)(=O)c2cc(Br)ccc2O)c1O [Example J68, 3-((5-Bromo-2-hydroxyphenyl)sulfonamido)-5-cyclopropyl-2-hydroxybenzoic acid]	7.30

— US12398097B2, “WDR5-MYC inhibitors” (Vanderbilt University, priority 2019, dated 2025)
